According to the NIST ThermoML archive (doi:10.1016/j.jct.2016.07.005):

Assay: xn = mol fraction of the nth substance listed
Conditions: 100 kPa, Liquid; for viscosity: Concentric cylinders viscometry; for mass density: Vibrating tube method

CN1CCC[C@H]1c1cccnc1 [(-)-3-(N-methylpyrrolidino)pyridine] + CCC(C)O
Conditions	mass density [kg/m3]	viscosity [mPa·s]
293.15 K, x1 = 0.1	841.874	3.496
293.15 K, x1 = 0.2036	873.003	3.46
293.15 K, x1 = 0.3	898.284	3.593
293.15 K, x1 = 0.4	921.306	3.845
293.15 K, x1 = 0.5	941.501	4.157
293.15 K, x1 = 0.6	959.218	4.476
293.15 K, x1 = 0.6956	974.099	4.734
293.15 K, x1 = 0.8	988.293	4.907
293.15 K, x1 = 0.9	1000.07	4.909
293.15 K, x1 = 1	1010.23	4.694
298.15 K, x1 = 0.1	837.728	2.96
298.15 K, x1 = 0.2036	868.857	2.981
298.15 K, x1 = 0.3	894.137	3.11
298.15 K, x1 = 0.4	917.159	3.319
298.15 K, x1 = 0.5	937.354	3.566
298.15 K, x1 = 0.6	955.075	3.813
298.15 K, x1 = 0.6956	969.963	4.015
298.15 K, x1 = 0.8	984.171	4.158
298.15 K, x1 = 0.9	995.971	4.179
298.15 K, x1 = 1	1006.16	4.048
303.15 K, x1 = 0.1	833.532	2.521
303.15 K, x1 = 0.2036	864.676	2.579
303.15 K, x1 = 0.3	889.965	2.704
303.15 K, x1 = 0.4	912.993	2.881
303.15 K, x1 = 0.5	933.194	3.08
303.15 K, x1 = 0.6	950.921	3.277
303.15 K, x1 = 0.6956	965.82	3.439
303.15 K, x1 = 0.8	980.047	3.558
303.15 K, x1 = 0.9	991.873	3.591
303.15 K, x1 = 1	1002.1	3.518
308.15 K, x1 = 0.1	829.273	2.162
308.15 K, x1 = 0.2036	860.452	2.244
308.15 K, x1 = 0.3	885.762	2.367
308.15 K, x1 = 0.4	908.808	2.523
308.15 K, x1 = 0.5	929.021	2.691
308.15 K, x1 = 0.6	946.761	2.853
308.15 K, x1 = 0.6956	961.675	2.987
308.15 K, x1 = 0.8	975.925	3.09
308.15 K, x1 = 0.9	987.783	3.128
308.15 K, x1 = 1	998.055	3.088
313.15 K, x1 = 0.1	824.949	1.875
313.15 K, x1 = 0.2036	856.182	1.975
313.15 K, x1 = 0.3	881.53	2.094
313.15 K, x1 = 0.4	904.598	2.232
313.15 K, x1 = 0.5	924.831	2.373
313.15 K, x1 = 0.6	942.588	2.508
313.15 K, x1 = 0.6956	957.521	2.62
313.15 K, x1 = 0.8	971.798	2.713
313.15 K, x1 = 0.9	983.692	2.761
313.15 K, x1 = 1	994.014	2.758
318.15 K, x1 = 0.1	820.559	1.627
318.15 K, x1 = 0.2036	851.865	1.734
318.15 K, x1 = 0.3	877.259	1.848
318.15 K, x1 = 0.4	900.359	1.974
318.15 K, x1 = 0.5	920.616	2.099
318.15 K, x1 = 0.6	938.394	2.214
318.15 K, x1 = 0.6956	953.35	2.308
318.15 K, x1 = 0.8	967.662	2.383
318.15 K, x1 = 0.9	979.601	2.419
318.15 K, x1 = 1	989.984	2.411
323.15 K, x1 = 0.1	816.09	1.434
323.15 K, x1 = 0.2036	847.491	1.55
323.15 K, x1 = 0.3	872.943	1.662
323.15 K, x1 = 0.4	896.089	1.778
323.15 K, x1 = 0.5	916.374	1.888
323.15 K, x1 = 0.6	934.178	1.989
323.15 K, x1 = 0.6956	949.16	2.071
323.15 K, x1 = 0.8	963.511	2.141
323.15 K, x1 = 0.9	975.504	2.183
323.15 K, x1 = 1	985.962	2.195
